Test results from patent publication US9221834B2 (Merck Sharp & Dohme Corp., priority 2010, dated 2015).

molecular target: T1, recombinant CETP (rCETP) (Homo sapiens, UniProt P11597); assay: RTA assay using recombinant CETP (2% RTA); assay type: biochemical; settings: RTA assay in 2% human serum; read-out: IC50
T1 sequence (P11597 18-493): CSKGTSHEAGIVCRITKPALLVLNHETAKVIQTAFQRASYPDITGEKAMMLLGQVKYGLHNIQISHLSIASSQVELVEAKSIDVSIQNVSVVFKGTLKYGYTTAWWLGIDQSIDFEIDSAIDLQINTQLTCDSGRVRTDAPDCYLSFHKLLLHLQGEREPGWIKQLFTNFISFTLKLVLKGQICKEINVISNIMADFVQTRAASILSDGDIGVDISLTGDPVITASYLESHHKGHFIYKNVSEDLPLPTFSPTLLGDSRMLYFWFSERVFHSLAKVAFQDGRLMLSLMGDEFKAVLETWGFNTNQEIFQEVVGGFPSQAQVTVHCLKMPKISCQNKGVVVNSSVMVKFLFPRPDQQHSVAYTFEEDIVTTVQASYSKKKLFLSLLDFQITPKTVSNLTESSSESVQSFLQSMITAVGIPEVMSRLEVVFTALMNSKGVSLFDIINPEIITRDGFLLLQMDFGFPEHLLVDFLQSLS
Experimental: In Vitro Radioactive Assays of CETP-Catalyzed CE and TG Transfer (RTA Assay)
Reagents and sources are: [3H] cholesteryl oleate (GE #TRK.886), [3H]
Both assays measure the transfer of [3H] cholesteryl oleate or [3H]triolein from exogenous LDL to HDL.
After a brief vortex, the solution is sonicated until clear and mixed with 20 mL of fresh human serum. The mixture is incubated overnight at 37° C. […] Once isolated the particles are dialyzed 3× in CETP buffer (50 mM Tris, pH 7.4, 100 mM NaCl, 1 mM EDTA). Human HDL is purchased from Intracel and used as the acceptor particles.
Transfer assays are performed in a 96-well v-bottom polypropylene plate. […] 1 μL of each test compound diluted in DMSO is added to 47 μL of assay cocktail per well and incubated at 37° C. for 1 hour. To initiate the transfer reaction, 2 μL radiolabeled LDL is added. After an additional 60 min of incubation at 37° C., the transfer action is terminated by precipitation of LDL with an equal volume of 20% W/V PEG 8000. The plates are centrifuged at 2000 rpm for 30 minutes at 4° C. A 40 μL aliquot of the HDL-containing supernatant is transferred to a Packard Optiplate with 200 μL of MicroScint 20. After mixing, plates are counted by liquid scintillation. Counts present in the supernatant for blanks (wells containing only HDL acceptor, CETP buffer and DMSO) are subtracted from those containing test compounds and used to correct for non-specific transfer.
Comparison of the counts of samples with inhibitors to an uninhibited (DMSO only) positive control yield a percent inhibition. A plot of percent inhibition vs. log of inhibitor concentration, fit to a Sigmoidal 4 parameter equation is used to calculate IC50.

SMILES | IC50 [nM]
COc1ccc(Cl)cc1-c1ccc(N2CCC2)nc1CN1C(=O)O[C@H](c2cc(C(F)(F)F)cc(C(F)(F)F)c2)[C@@H]1C [Example 27, (4S,5R)-3-{[6-azetidin-1-yl-3-(5-chloro-2-methoxyphenyl)pyridin-2-yl]methyl}-5-[3,5-bis(trifluoromethyl)phenyl]-4-methyl-1,3-oxazolidin-2-one] | 3
COC(=O)c1cc(-c2ccc(OC)c(-c3ccc(N4CCC4)nc3CN3C(=O)O[C@H](c4cc(C(F)(F)F)cc(C(F)(F)F)c4)[C@@H]3C)c2)no1 [Example 28] | 80
COC(=O)c1c(C)c(-c2ccc(OC)c(-c3ccc(N4CCC4)nc3CN3C(=O)O[C@H](c4cc(C(F)(F)F)cc(C(F)(F)F)c4)[C@@H]3C)c2)nn1C [Example 29] | 14
COC(=O)c1cnc(-c2ccc(OC)c(-c3ccc(N4CCC4)nc3CN3C(=O)O[C@H](c4cc(C(F)(F)F)cc(C(F)(F)F)c4)[C@@H]3C)c2)cn1 [Example 30] | 133
COC(=O)CCc1ccc(OC)c(-c2ccc(N3CCC3)nc2CN2C(=O)O[C@H](c3cc(F)c(F)c(F)c3)[C@@H]2C)c1 [Example 31] | 97
COC(=O)CC(C)(C)c1ccc(OC)c(-c2ccc(N3CCC3)nc2CN2C(=O)O[C@H](c3cc(F)c(F)c(F)c3)[C@@H]2C)c1 [Example 32] | 107
COc1ccc([C@H]2CC[C@H](C(=O)OC)CC2)cc1-c1ccc(N2CCC2)nc1CN1C(=O)O[C@H](c2cc(F)c(F)c(F)c2)[C@@H]1C [Example 35] | 439
COC(=O)c1ccc(-c2cc(-c3ccc(N4CCC4)nc3CN3C(=O)O[C@H](c4cc(F)c(F)c(F)c4)[C@@H]3C)c(OC)cc2F)c(C)c1 [Example 36] | 26
COc1cc(F)c([C@H]2C[C@@H](C(=O)OC)C2)cc1-c1ccc(N2CCC2)nc1CN1C(=O)O[C@H](c2cc(C(F)(F)F)cc(C(F)(F)F)c2)[C@@H]1C [Example 37] | 17
COc1cc(F)c([C@H]2C[C@H](C(=O)OC)C2)cc1-c1ccc(N2CCC2)nc1CN1C(=O)O[C@H](c2cc(C(F)(F)F)cc(C(F)(F)F)c2)[C@@H]1C [Example 38] | 5
COC(=O)Cc1ccc(OC)c(-c2c(C)cc(N3CCC3)nc2CN2C(=O)O[C@H](c3cc(C(F)(F)F)cc(C(F)(F)F)c3)[C@@H]2C)c1 [Example 40] | 3
COC(=O)c1cc(C)c(-c2ccc(OC)c(-c3ccc(N4CCC4)nc3CN3C(=O)O[C@H](c4cc(C(F)(F)F)cc(C(F)(F)F)c4)[C@@H]3C)c2)s1 [Example 46, Methyl 5-{3-[6-azetidin-1-yl-2-({(4S,5R)-5-[3,5-bis(trifluoromethyl)phenyl]-4-methyl-2-oxo-1,3-oxazolidin-3-yl}methyl)pyridin-3-yl]-4-methoxyphenyl}-4-methylthiophene-2-carboxylate] | 10
COC(=O)c1ccc(-c2ccc(OC)c(-c3ccc(N4CCC4)nc3CN3C(=O)O[C@H](c4cc(C(F)(F)F)cc(C(F)(F)F)c4)[C@@H]3C)c2)o1 [Example 47, Methyl 5-{3-[6-azetidin-1-yl-2-({(4S,5R)-5-[3,5-bis(trifluoromethyl)phenyl]-4-methyl-2-oxo-1,3-oxazolidin-3-yl}methyl)pyridin-3-yl]-4-methoxyphenyl}-2-furoate] | 34
COC(=O)c1ccc(-c2ccc(OC)c(-c3ccc(N4CCC4)nc3CN3C(=O)O[C@H](c4cc(C(F)(F)F)cc(C(F)(F)F)c4)[C@@H]3C)c2)s1 [Example 48] | 65
COC(=O)c1cc(-c2ccc(OC)c(-c3ccc(N4CCC4)nc3CN3C(=O)O[C@H](c4cc(C(F)(F)F)cc(C(F)(F)F)c4)[C@@H]3C)c2)cs1 [Example 49] | 98
COC(=O)c1scc(-c2ccc(OC)c(-c3cc(Br)c(N4CCC4)nc3CN3C(=O)O[C@H](c4cc(C(F)(F)F)cc(C(F)(F)F)c4)[C@@H]3C)c2)c1C [Example 50] | 15
COC(=O)c1cc(-c2ccc(OC)c(-c3ccc(N4CCC4)nc3CN3C(=O)O[C@H](c4cc(C(F)(F)F)cc(C(F)(F)F)c4)[C@@H]3C)c2)c(C)s1 [Example 51] | 12
COC(=O)c1sc(-c2ccc(OC)c(-c3ccc(N4CCC4)nc3CN3C(=O)O[C@H](c4cc(C(F)(F)F)cc(C(F)(F)F)c4)[C@@H]3C)c2)c(C)c1C [Example 52] | 15
COC(=O)c1coc(-c2ccc(OC)c(-c3ccc(N4CCC4)nc3CN3C(=O)O[C@H](c4cc(C(F)(F)F)cc(C(F)(F)F)c4)[C@@H]3C)c2)c1 [Example 53] | 61

SMILES | IC50 [nM]
CCOC(=O)c1csc(-c2ccc(OC)c(-c3ccc(N4CCC4)nc3CN3C(=O)O[C@H](c4cc(C(F)(F)F)cc(C(F)(F)F)c4)[C@@H]3C)c2)n1 [Example 54] | 189
CCOC(=O)c1cc(C)c(-c2ccc(OC)c(-c3ccc(N4CCC4)nc3CN3C(=O)O[C@H](c4cc(C(F)(F)F)cc(C(F)(F)F)c4)[C@@H]3C)c2)n1C [Example 56] | 5
CCOC(=O)c1c(C)c(-c2ccc(OC)c(-c3ccc(N4CCC4)nc3CN3C(=O)O[C@H](c4cc(C(F)(F)F)cc(C(F)(F)F)c4)[C@@H]3C)c2)c(C)n1C [Example 57] | 7
COC(=O)c1ccc(-c2ccc(OC)c(-c3ccc(N4CCC4)nc3CN3C(=O)O[C@H](c4cc(C(F)(F)F)cc(C(F)(F)F)c4)[C@@H]3C)c2)cn1 [Example 58] | 29
COC(=O)c1ccc(-c2ccc(OC)c(-c3ccc(N4CCC4)nc3CN3C(=O)O[C@H](c4cc(C(F)(F)F)cc(C(F)(F)F)c4)[C@@H]3C)c2)nc1 [Example 59] | 195
COc1ccc(CCC(=O)O)cc1-c1ccc(N2CCC2)nc1CN1C(=O)O[C@H](c2cc(C(F)(F)F)cc(C(F)(F)F)c2)[C@@H]1C [Example 60, 3-{3-[6-Azetidin-1-yl-2-({(4S,5R)-5-[3,5-bis(trifluoromethyl)phenyl]-4-methyl-2-oxo-1,3-oxazolidin-3-yl}methyl)pyridin-3-yl]-4-methoxyphenyl}propanoic acid] | 11
COc1ccc(CCC(=O)O)cc1-c1c(C)cc(N2CCC2)nc1CN1C(=O)O[C@H](c2cc(C(F)(F)F)cc(C(F)(F)F)c2)[C@@H]1C [Example 61, 3-{3-[6-Azetidin-1-yl-2-({(4S,5R)-5-[3,5-bis(trifluoromethyl)phenyl]-4-methyl-2-oxo-1,3-oxazolidin-3-yl}methyl)-4-methylpyridin-3-yl]-4-methoxyphenyl}propanoic acid] | 5
COc1ccc(CCC(=O)O)cc1-c1ccc(N2CCCC2)nc1CN1C(=O)O[C@H](c2cc(C(F)(F)F)cc(C(F)(F)F)c2)[C@@H]1C [Example 62] | 49
COc1ccc(CCC(=O)O)cc1-c1c(C)cc(N2CC(F)(F)C2)nc1CN1C(=O)O[C@H](c2cc(C(F)(F)F)cc(C(F)(F)F)c2)[C@@H]1C [Example 63] | 5
COc1ccc(CCC(=O)O)cc1-c1ccc(N2CC(F)(F)C2)nc1CN1C(=O)O[C@H](c2cc(C(F)(F)F)cc(C(F)(F)F)c2)[C@@H]1C [Example 64] | 13
COc1cc(F)c(CCC(=O)O)cc1-c1ccc(N2CC(F)(F)C2)nc1CN1C(=O)O[C@H](c2cc(C(F)(F)F)cc(C(F)(F)F)c2)[C@@H]1C [Example 65] | 24
COc1ccc([C@@H]2C[C@H]2C(=O)O)cc1-c1ccc(N2CC(F)(F)C2)nc1CN1C(=O)O[C@H](c2cc(C(F)(F)F)cc(C(F)(F)F)c2)[C@@H]1C [Example 66] | 8
COc1ccc([C@H]2C[C@@H]2C(=O)O)cc1-c1ccc(N2CC(F)(F)C2)nc1CN1C(=O)O[C@H](c2cc(C(F)(F)F)cc(C(F)(F)F)c2)[C@@H]1C [Example 67] | 14
COc1ccc([C@@H]2C[C@H]2C(=O)O)cc1-c1c(C)cc(N2CCC2)nc1CN1C(=O)O[C@H](c2cc(C(F)(F)F)cc(C(F)(F)F)c2)[C@@H]1C [Example 68] | 4
COc1cc(F)c(CCC(=O)O)cc1-c1c(C)cc(N2CCC2)nc1CN1C(=O)O[C@H](c2cc(C(F)(F)F)cc(C(F)(F)F)c2)[C@@H]1C [Example 69] | 5
COc1ccc(CCC(=O)O)cc1-c1c(CN2C(=O)O[C@H](c3cc(C(F)(F)F)cc(C(F)(F)F)c3)[C@@H]2C)nc(N2CCC2)c(Br)c1C [Example 70] | 4
COc1ccc([C@H]2C[C@@H]2C(=O)O)cc1-c1c(C)cc(N2CCC2)nc1CN1C(=O)O[C@H](c2cc(C(F)(F)F)cc(C(F)(F)F)c2)[C@@H]1C [Example 71] | 5
COc1ccc([C@@H]2C[C@H]2C(=O)O)cc1-c1ccc(N2CCC2)nc1CN1C(=O)O[C@H](c2cc(C(F)(F)F)cc(C(F)(F)F)c2)[C@@H]1C [Example 72] | 7
